Counter-ions that a name gives are not always drawn.
Biological target: rat TRPV1 (Rattus norvegicus (Rat), UniProt O35433)
Conditions: read-out: Rat IC50

Chain of rat TRPV1 (O35433 whole entry): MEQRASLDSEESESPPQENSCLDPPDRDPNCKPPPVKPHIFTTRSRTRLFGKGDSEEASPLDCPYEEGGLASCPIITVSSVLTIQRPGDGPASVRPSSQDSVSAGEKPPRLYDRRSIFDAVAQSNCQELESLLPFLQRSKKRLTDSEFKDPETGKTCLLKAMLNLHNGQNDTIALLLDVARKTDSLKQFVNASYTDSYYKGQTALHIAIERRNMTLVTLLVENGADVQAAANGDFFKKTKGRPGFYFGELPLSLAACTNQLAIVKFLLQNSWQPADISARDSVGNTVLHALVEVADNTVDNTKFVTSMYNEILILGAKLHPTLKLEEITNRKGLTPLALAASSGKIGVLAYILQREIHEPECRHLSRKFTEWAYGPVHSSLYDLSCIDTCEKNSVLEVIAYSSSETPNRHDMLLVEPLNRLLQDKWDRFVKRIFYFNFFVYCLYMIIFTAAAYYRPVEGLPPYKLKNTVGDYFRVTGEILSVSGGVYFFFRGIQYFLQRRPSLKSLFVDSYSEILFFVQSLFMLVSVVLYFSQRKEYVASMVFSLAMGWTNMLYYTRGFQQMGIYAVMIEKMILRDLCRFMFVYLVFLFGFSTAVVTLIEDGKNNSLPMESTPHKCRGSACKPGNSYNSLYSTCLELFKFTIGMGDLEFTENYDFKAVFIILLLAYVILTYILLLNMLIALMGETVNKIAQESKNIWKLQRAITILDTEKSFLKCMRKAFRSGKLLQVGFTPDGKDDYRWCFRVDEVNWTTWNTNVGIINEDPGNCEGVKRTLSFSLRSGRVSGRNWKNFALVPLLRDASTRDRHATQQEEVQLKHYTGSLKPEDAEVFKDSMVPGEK

`FC(F)(F)c1ccc(Nc2nc(N3CCCCC3)nc3c2CCN(c2ncccc2C(F)(F)F)CC3)nc1Cl` [Example 390, (6-Chloro-5-trifluoromethyl-pyridin-2-yl)-[2-piperidin-1-yl-7-(3-trifluoromethyl-pyridin-2-yl)-6,7,8,9-tetrahydro-5H-pyrimido[4,5-d]azepin-4-yl]-amine] and `FC(F)(F)c1ccc(Nc2nc(N3CCC3)nc3c2CCN(c2ncccc2C(F)(F)F)CC3)cc1Cl` [Example 231, 2-Azetidin-1-yl-N-[3-chloro-4-(trifluoromethyl)phenyl]-7-[3-(trifluoromethyl)pyridin-2-yl]-6,7,8,9-tetrahydro-5H-pyrimido[4,5-d]azepin-4-amine trifluoroacetic acid salt] are within 1.5-fold of each other in IC50: 90 nM for the first, 100 nM for the second.

Compared with `COC(=O)c1ccc(Nc2nc(C(C)C)nc3c2CCN(c2ncccc2C(F)(F)F)CC3)cc1` [Example 103, 4-[2-Isopropyl-7-(3-trifluoromethyl-pyridin-2-yl)-6,7,8,9-tetrahydro-5H-pyrimido[4,5-d]azepin-4-ylamino]-benzoic acid methyl ester], `COC(=O)C(C)(C)c1ccc(Nc2nc(C(C)C)nc3c2CCN(c2ncccc2C(F)(F)F)CC3)cc1` [Example 174, Methyl 2-methyl-2-[4-({2-(1-methylethyl)-7-[3-(trifluoromethyl)pyridin-2-yl]-6,7,8,9-tetrahydro-5H-pyrimido[4,5-d]azepin-4-yl}amino)phenyl]propanoate] is 5.9-fold higher in IC50: 340 nM for the first, 2010 nM for the second. The first is the more potent here.

Compared with `CC(C)c1nc2c(c(Nc3ccc(C(C)(C)C)c([N+](=O)[O-])c3)n1)CCN(c1ncccc1C(F)(F)F)CC2` [Example 143, N-[4-(1,1-Dimethylethyl)-3-nitrophenyl]-2-(1-methylethyl)-7-[3-(trifluoromethyl)pyridin-2-yl]-6,7,8,9-tetrahydro-5H-pyrimido[4,5-d]azepin-4-amine], `CC(C)c1nc2c(c(Nc3ccc4c(c3)N(C)CCC4(C)C)n1)CCN(c1ncccc1C(F)(F)F)CC2` [Example 162, [2-Isopropyl-7-(3-trifluoromethyl-pyridin-2-yl)-6,7,8,9-tetrahydro-5H-pyrimido[4,5-d]azepin-4-yl]-(1,4,4-trimethyl-1,2,3,4-tetrahydro-quinolin-7-yl)-amine] is 4.3-fold lower in IC50: 130 nM for the first, 30 nM for the second.

First: OC1CCN(c2nc3c(c(Nc4ccc(C(F)(F)F)cc4)n2)CCN(c2ncccc2C(F)(F)F)CC3)CC1 [Example 59B, 1-[4-(4-Trifluoromethyl-phenylamino)-7-(3-trifluoromethyl-pyridin-2-yl)-6,7,8,9-tetrahydro-5H-pyrimido[4,5-d]azepin-2-yl]-piperidin-4-ol trifluoroacetic acid salt]
Second: FC(F)(F)c1ccc(Nc2nc(N3CCCC3)nc3c2CCN(c2ncccc2C(F)(F)F)CC3)cc1 [Example 106, [2-Pyrrolidin-1-yl-7-(3-trifluoromethyl-pyridin-2-yl)-6,7,8,9-tetrahydro-5H-pyrimido[4,5-d]azepin-4-yl]-(4-trifluoromethyl-phenyl)-amine]
The IC50 of the first is 6.1-fold higher: 380 nM for the first, 62 nM for the second. The second is the more potent here.

Going from `COC[C@@H]1CCCN1c1nc2c(c(Nc3ccc(C(F)(F)F)cc3)n1)CCN(c1ncccc1C(F)(F)F)CC2` [Example 215, 2-{(2S)-2-[(Methyloxy)methyl]pyrrolidin-1-yl}-N-[4-(trifluoromethyl)phenyl]-7-[3-(trifluoromethyl)pyridin-2-yl]-6,7,8,9-tetrahydro-5H-pyrimido[4,5-d]azepin-4-amine trifluoroacetic acid salt] to `FC(F)(F)c1ccc(Nc2nc(NCC3CC3)nc3c2CCN(c2ncccc2C(F)(F)F)CC3)cc1` [Example 95B, N^2-Cyclopropylmethyl-N^4-(4-trifluoromethyl-phenyl)-7-(3-trifluoromethyl-pyridin-2-yl)-6,7,8,9-tetrahydro-5H-pyrimido[4,5-d]azepine-2,4-diamine trifluoroacetic acid salt], the IC50 rises from 10 nM to 82 nM (8.2-fold). The first is the more potent here.

`Cc1cc(C(F)(F)F)ccc1Nc1nc(OC2CCOC2)nc2c1CCN(c1ncccc1C(F)(F)F)CC2` (stereo not shown) [Example 313, N-[2-Methyl-4-(trifluoromethyl)phenyl]-2-(tetrahydrofuran-3-yloxy)-7-[3-(trifluoromethyl)pyridin-2-yl]-6,7,8,9-tetrahydro-5H-pyrimido[4,5-d]azepin-4-amine] and `Cc1cc(C(F)(F)F)ccc1Nc1nc(OC2CCOCC2)nc2c1CCN(c1ncccc1C(F)(F)F)CC2` [Example 312, N-[2-Methyl-4-(trifluoromethyl)phenyl]-2-(tetrahydro-2H-pyran-4-yloxy)-7-[3-(trifluoromethyl)pyridin-2-yl]-6,7,8,9-tetrahydro-5H-pyrimido[4,5-d]azepin-4-amine] are within 1.5-fold of each other in IC50: 560 nM for the first, 450 nM for the second.

Going from `CN(C)c1nc2c(c(NCc3ccc(C(F)(F)F)nc3)n1)CCN(c1ncccc1C(F)(F)F)CC2` [Example 218, N^2,N^2-Dimethyl-7-[3-(trifluoromethyl)pyridin-2-yl]-N^4-{[6-(trifluoromethyl)pyridin-3-yl]methyl}-6,7,8,9-tetrahydro-5H-pyrimido[4,5-d]azepine-2,4-diamine trifluoroacetic acid salt] to `FC(F)(F)c1ccc(Nc2nc(C3CC3)nc3c2CCN(c2ncccc2C(F)(F)F)CC3)nc1` [Example 19, [2-Cyclopropyl-7-(3-trifluoromethyl-pyridin-2-yl)-6,7,8,9-tetrahydro-5H-pyrimido[4,5-d]azepin-4-yl]-(5-trifluoromethyl-pyridin-2-yl)-amine], the IC50 rises from 120 nM to 510 nM (4.2-fold). The first is the more potent here.

`FC(F)(F)c1ccc(Nc2nc(-c3ccccc3)nc3c2CCN(c2ncccc2C(F)(F)F)CC3)cc1` [Example 7, [2-Phenyl-7-(3-trifluoromethyl-pyridin-2-yl)-6,7,8,9-tetrahydro-5H-pyrimido[4,5-d]azepin-4-yl]-(4-trifluoromethyl-phenyl)-amine] and `FC(F)(F)c1ccc(Nc2nc(-c3ccccn3)nc3c2CCN(c2ncccc2C(F)(F)F)CC3)cc1` [Example 172, 2-Pyridin-2-yl-N-[4-(trifluoromethyl)phenyl]-7-[3-(trifluoromethyl)pyridin-2-yl]-6,7,8,9-tetrahydro-5H-pyrimido[4,5-d]azepin-4-aminele 1 trifluoroacetic acid salt] are within 1.5-fold of each other in IC50: 140 nM for the first, 130 nM for the second.

Compared with `CC(C)c1nc2c(c(Nc3ccc(S(=O)(=O)C(F)(F)F)cc3)n1)CCN(c1ncccc1C(F)(F)F)CC2` [Example 101B, [2-Isopropyl-7-(3-trifluoromethyl-pyridin-2-yl)-6,7,8,9-tetrahydro-5H-pyrimido[4,5-d]azepin-4-yl]-(4-trifluoromethanesulfonyl-phenyl)-amine trifluoroacetic acid salt], `CC(C)Sc1nc2c(c(Nc3ccc(C(F)(F)F)cc3)n1)CCN(c1ncccc1C(F)(F)F)CC2` [Example 355, 2-[(1-Methylethyl)sulfanyl]-N-[4-(trifluoromethyl)phenyl]-7-[3-(trifluoromethyl)pyridin-2-yl]-6,7,8,9-tetrahydro-5H-pyrimido[4,5-d]azepin-4-amine] is 16-fold lower in IC50: 990 nM for the first, 60 nM for the second.

`CSc1nc2c(c(Nc3ccc(C(F)(F)F)cc3C)n1)CCN(c1ncccc1C(F)(F)F)CC2` [Example 204, 2-(Methylsulfanyl)-N-[2-methyl-4-(trifluoromethyl)phenyl]-7-[3-(trifluoromethyl)pyridin-2-yl]-6,7,8,9-tetrahydro-5H-pyrimido[4,5-d]azepin-4-amine] and `FC(F)(F)c1ccc(Nc2nc(-c3ccoc3)nc3c2CCN(c2ncccc2C(F)(F)F)CC3)cc1` [Example 146, 2-Furan-3-yl-N-[4-(trifluoromethyl)phenyl]-7-[3-(trifluoromethyl)pyridin-2-yl]-6,7,8,9-tetrahydro-5H-pyrimido[4,5-d]azepin-4-amine] are within 1.5-fold of each other in IC50: 560 nM for the first, 720 nM for the second.

`CC(C)c1nc2c(c(Nc3cnc4ccccc4c3)n1)CCN(c1ncccc1C(F)(F)F)CC2` [Example 21, [2-Isopropyl-7-(3-trifluoromethyl-pyridin-2-yl)-6,7,8,9-tetrahydro-5H-pyrimido[4,5-d]azepin-4-yl]-quinolin-3-yl-amine] and `CC(C)c1nc2c(c(Nc3ccc(C(F)(F)F)cc3)n1)CCN(c1ncccc1N)CC2` [Example 86, [7-(3-Amino-pyridin-2-yl)-2-isopropyl-6,7,8,9-tetrahydro-5H-pyrimido[4,5-d]azepin-4-yl]-(4-trifluoromethyl-phenyl)-amine] are within 1.5-fold of each other in IC50: 1100 nM for the first, 850 nM for the second.

Compared with `CCS(=O)(=O)c1cccnc1N1CCc2nc(C(C)C)nc(Nc3ccc(C(C)(C)C)cc3)c2CC1` [Example 296, N-[4-(1,1-Dimethylethyl)phenyl]-7-[3-(ethylsulfonyl)pyridin-2-yl]-2-(1-methylethyl)-6,7,8,9-tetrahydro-5H-pyrimido[4,5-d]azepin-4-amine], `CC(C)c1nc2c(c(NCCc3ccc(Cl)c(Cl)c3)n1)CCN(c1ncccc1C(F)(F)F)CC2` [Example 108, [2-(3,4-Dichloro-phenyl)-ethyl]-[2-isopropyl-7-(3-trifluoromethyl-pyridin-2-yl)-6,7,8,9-tetrahydro-5H-pyrimido[4,5-d]azepin-4-yl]-amine] is 7.8-fold higher in IC50: 120 nM for the first, 940 nM for the second.

Going from `FC1(F)CN(c2nc3c(c(Nc4ccc(C(F)(F)F)cc4)n2)CCN(c2ncccc2C(F)(F)F)CC3)C1` [Example 241, 2-(3,3-Difluoroazetidin-1-yl)-N-[4-(trifluoromethyl)phenyl]-7-[3-(trifluoromethyl)pyridin-2-yl]-6,7,8,9-tetrahydro-5H-pyrimido[4,5-d]azepin-4-amine] to `COC(=O)c1ccc(Nc2nc(N3CCCCC3)nc3c2CCN(c2ncccc2C(F)(F)F)CC3)cc1` [Example 387, 4-[2-Piperidin-1-yl-7-(3-trifluoromethyl-pyridin-2-yl)-6,7,8,9-tetrahydro-5H-pyrimido[4,5-d]azepin-4-ylamino]-benzoic acid methyl ester], the IC50 rises from 170 nM to 550 nM (3.2-fold).

For `COC(=O)c1cnc(N2CCc3nc(SC)nc(Nc4ccc(C(F)(F)F)cc4)c3CC2)c(Cl)c1` [Example 303, Methyl 5-chloro-6-[2-(methylsulfanyl)-4-{[4-(trifluoromethyl)phenyl]amino}-5,6,8,9-tetrahydro-7H-pyrimido[4,5-d]azepin-7-yl]pyridine-3-carboxylate], the IC50 was over 6670 nM.

Same assay, conditions: read-out: Rat IC50; hydrochloride salt

`CC(C)(C)c1ccc(Nc2ncnc3c2CCN(c2ncccc2C(F)(F)F)CC3)cc1` [Example 1A, (4-tert-Butyl-phenyl)-[7-(3-trifluoromethyl-pyridin-2-yl)-6,7,8,9-tetrahydro-5H-pyrimido[4,5-d]azepin-4-yl]-amine hydrochloride salt] showed an IC50 of 49 nM.

Source: patent publication US9422293B2 (priority 2006, dated 2016)
